Format in all cases: functional
The subject of one assay is Bacillus subtilis. Put plainly: Antibacterial activity against Bacillus subtilis ATCC 6633 by serial dilution assay.
For the next assay, the system named is Rhizomucor miehei. Kind of assay: Antifungal activity against Mucor miehei by plate diffusion assay.
Another assay relates to L1210. Put plainly: Cytotoxicity against mouse L1210 cells. The settings on record: read-out: ED50 (the source's name).

Values after ≈ are worked out from the molar mass of the structure shown.

The term MIC denotes the smallest concentration in the dilution series that meets the test's criterion for growth inhibition. Low values mean inhibition by little substance, high ones a need for much substance. As for `COC(=O)/C(=C/C[C@H]1[C@]2(CO2)C[C@@H](O)[C@H]2C(C)(C)[C@@H](O)CC[C@@]21C)C1CO1` (stereo partly drawn) [AULACOCARPIN B], the MIC was 25 µg/mL (≈ 65.7 µM) in the assay with Bacillus subtilis and 50 µg/mL (≈ 131 µM) against Rhizomucor miehei. In addition, the EC50 in the assay with L1210 came to 25 µg/mL (≈ 65.7 µM).
`COC(=O)/C(=C/C[C@H]1[C@@]2(CC[C@H]3C(C)(C)[C@@H](O)CC[C@@]31C)CO2)C1CO1` (stereo partly drawn) [AULACOCARPINE A]: the figures for the MIC in the assay with Bacillus subtilis and in the assay with Rhizomucor miehei were 25 µg/mL (≈ 68.6 µM) and 50 µg/mL (≈ 137 µM), respectively.
As to `CC1(C)[C@@H](O)CC[C@]2(C)C3=C(CC[C@@H]12)CO[C@@H](C1=CCOC1=O)C3` [AULACOCARPINOLIDE], the MIC came out at 25 µg/mL (≈ 75.2 µM) in the assay with Bacillus subtilis and 50 µg/mL (≈ 150 µM) against Rhizomucor miehei. The EC50 in the assay with L1210 was 12.5 µg/mL (≈ 37.6 µM).

(Values after ChEMBL document CHEMBL1148042, “Novel bioactive diterpenoids from Aframomum aulacocarpos” (1994).)
